US20230149516A1, “USE OF PEPTIDYLGLYCINE ALPHA-AMIDATING MONOOXYGENASE (PAM) FOR THERAPEUTIC PURPOSE” (PAM THERAGNOSITICS GMBH, priority 2020, published 2023)

Key:
[1] = target: T1, adrenomedullin-Gly (ADM-Gly) (UniProt P35318)
T1 sequence: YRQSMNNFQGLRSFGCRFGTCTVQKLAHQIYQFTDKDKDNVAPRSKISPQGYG

bio-ADM = assay: Circulating bio-ADM concentration in rats after intravenous injection of PAM, ascorbate or both; type: in vivo, Wistar rats
[2] = target: T2, circulating human PAM activity (Homo sapiens, UniProt P19021); assay: Amidating activity in healthy human volunteers after oral ascorbate uptake, measured without exogenous ascorbate; type: in vivo; conditions: 2000 mg oral single dose
T2 construct: Human serum or Li-Heparin plasma from self-reported healthy volunteers was used as source of human native PAM; from tissue; host or cells: Li-heparin plasma and serum of healthy human volunteers
T2 sequence (P19021 31-973): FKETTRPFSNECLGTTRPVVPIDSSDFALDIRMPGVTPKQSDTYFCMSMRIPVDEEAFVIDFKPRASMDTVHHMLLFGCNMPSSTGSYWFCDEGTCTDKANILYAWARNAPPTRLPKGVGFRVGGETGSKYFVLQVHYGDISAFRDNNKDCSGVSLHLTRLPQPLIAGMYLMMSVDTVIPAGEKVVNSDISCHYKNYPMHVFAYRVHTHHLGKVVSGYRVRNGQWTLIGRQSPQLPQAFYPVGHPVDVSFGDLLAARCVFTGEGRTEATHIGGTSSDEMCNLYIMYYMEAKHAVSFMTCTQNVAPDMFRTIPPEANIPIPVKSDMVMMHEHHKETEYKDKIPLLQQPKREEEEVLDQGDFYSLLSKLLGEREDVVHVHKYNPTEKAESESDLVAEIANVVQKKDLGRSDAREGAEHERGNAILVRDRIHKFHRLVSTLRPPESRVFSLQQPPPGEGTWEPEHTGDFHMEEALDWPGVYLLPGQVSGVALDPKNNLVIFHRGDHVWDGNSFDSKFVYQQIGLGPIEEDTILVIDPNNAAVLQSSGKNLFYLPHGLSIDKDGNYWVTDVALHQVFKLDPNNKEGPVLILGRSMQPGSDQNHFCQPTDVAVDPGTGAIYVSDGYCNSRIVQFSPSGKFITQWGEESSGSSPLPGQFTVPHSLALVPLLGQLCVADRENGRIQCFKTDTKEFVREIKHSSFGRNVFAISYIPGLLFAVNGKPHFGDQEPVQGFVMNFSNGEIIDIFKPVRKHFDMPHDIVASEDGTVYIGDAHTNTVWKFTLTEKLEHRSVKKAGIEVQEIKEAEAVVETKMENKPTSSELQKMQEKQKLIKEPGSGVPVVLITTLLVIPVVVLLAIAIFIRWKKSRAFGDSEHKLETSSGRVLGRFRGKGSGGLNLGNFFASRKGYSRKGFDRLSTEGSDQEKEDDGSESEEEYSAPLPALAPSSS
Procedure: FIG. 23: Amidating activity in healthy human volunteers before (0 h) and after oral ascorbate uptake measured without addition of exogenous ascorbate. AMA at t=0 h was set as 100%.
Human serum or Li-Heparin plasma from self-reported healthy volunteers was used as source of human native PAM. Each sample (20 μl) was diluted two-fold in 100 mM Tris-HCl in duplicate. The amidation reaction was initiated by addition of 160 μl of PAM-reaction buffer (100 mM Tris-HCl, pH 7.5, 6.25 μM CuSO4, 2.5 mM L-ascorbate, 125 μg/mL catalase, 62.5 μM amastatin, 250 μM leupeptin, 36 ng/mL synthetic ADM-Gly and 375 μg/mL NT-ADM antibody). Afterwards, 100 μl of each individual reaction of duplicated samples were combined and transferred into 20 μl of 200 mM EDTA to terminate the amidation reaction and to generate t=0 minutes reaction time-point followed by incubation at 37° C. for 40 minutes. Afterwards the non-terminated reactions were stopped with 10 μl of 200 mM EDTA. To determine the PAM activity, bio-ADM as reaction product was quantified in each sample using the Sphingotest® bio-ADM immunoassay (Weber et al. 2017). The amidation assay was calibrated using a 6-point calibration curve generated with human recombinant PAM of known activity. Samples and calibrators were treated in the same manner. Relative light units (RLU t40 min-t0 min) determined via Sphingotest® bio-ADM immunoassay for each sample were fitted against the RLU (t40 min-t0 min) of the calibrator to determine the PAM activity in the samples. PAM activity is described as “adrenomedullin maturation activity” (AMA) in μg bio-ADM formed per hour and L of sample.
Healthy volunteers (n=4) received 2000 mg of vitamin C (Dr. Scheffler, Additiva® Vitamin C) as an oral single dose. Blood sampling was performed prior to- and 1, 2 and 3 hours post administration. Basal amidating activity was determined from Li-heparin plasma and serum as described in example 3 in absence of exogenous ascorbate addition and is shown in FIG. 23.

PAM activity = assay: Circulating PAM activity in rats after intravenous injection of PAM, ascorbate or both, measured without exogenous ascorbate; type: in vivo, Wistar rats
[3] = target: T3, adrenomedullin-Gly (ADM-Gly), P35318
T3 chain: T1 sequence

“native human PAM in human plasma or serum” was tested, and the “formation of bio-ADM (Sphingotest bio-ADM immunoassay) in human Li-Heparin plasma” value [1] was “When ADM-Gly was added to the sample, a linear formation of bio-ADM was detected within 90 minutes” and the “formation of bio-ADM from endogenous ADM-Gly in human Li-Heparin plasma” value [1] was “endogenous human PAM enzyme is capable of the conversion of endogenous human ADM-Gly to bioADM in a time-dependent manner”.

`O=C1O[C@H]([C@@H](O)CO)C(O)=C1O` [Ascorbate, vitamin C, reference compound] was tested, and the “bio-ADM concentration elevated by the factor (normalized to placebo)” value (bio-ADM; after 15 min) was 1.4, the “bio-ADM concentration elevated by the factor (normalized to placebo)” value (bio-ADM; after 30 min) was 1.4 and the “bio-ADM concentration elevated by the factor (normalized to placebo)” value (bio-ADM; after 45 min) was 1.2. For the same molecule, the “bio-ADM concentration elevated by the factor (normalized to placebo)” value (bio-ADM; after 60 min) was “returned to baseline levels”, the “bio-ADM concentration compared to the Placebo group” value (bio-ADM; after 120 minutes) was “not significantly different” and the “PAM activity elevated by the factor compared to prior to ascorbate uptake” value ([2]; 1 h after uptake) was 1.7. For the same molecule, the “PAM activity elevated by the factor compared to prior to ascorbate uptake” value ([2]; 2 h post uptake) was roughly 2, the “PAM activity elevated by the factor compared to prior to ascorbate uptake” value ([2]; 3 h post uptake) was roughly 2 and the “PAM activity compared to placebo group” value (PAM activity; 120 min past injection) was “comparable to PAM activity in the placebo group”. For the same molecule, the “time of maximal elevation of PAM activity past injection” value (PAM activity; single i.v. injection) was 15 min, the “elevation of circulating PAM activity” value (PAM activity; single i.v. injection of 500 μl (PAM 50 μg/mL, ascorbate 40 mg/mL), vs placebo) was “non-significant elevation” and the “time PAM activity remained elevated after injection” value (PAM activity; single i.v. injection, significantly elevated for PAM and the combination) was 60 min.

B1: recombinant human PAM (peptidylglycine alpha-amidating monooxygenase, amino acids 21-834, C-terminal hexa-histidine tag linked via a GS linker) (protein)
chain: SPLSVFKRFKETTRPFSNECLGTTRPVVPIDSSDFALDIRMPGVTPKQSDTYFCMSMRIPVDEEAFVIDFKPRASMDTVHHMLLFGCNMPSSTGSYWFCDEGTCTDKANILYAWARNAPPTRLPKGVGFRVGGETGSKYFVLQVHYGDISAFRDNNKDCSGVSLHLTRLPQPLIAGMYLMMSVDTVIPAGEKVVNSDISCHYKNYPMHVFAYRVHTHHLGKVVSGYRVRNGQWTLIGRQSPQLPQAFYPVGHPVDVSFGDLLAARCVFTGEGRTEATHIGGTSSDEMCNLYIMYYMEAKHAVSFMTCTQNVAPDMFRTIPPEANIPIPVKSDMVMMHEHHKETEYKDKIPLLQQPKREEEEVLDQGDFYSLLSKLLGEREDVVHVHKYNPTEKAESESDLVAEIANVVQKKDLGRSDAREGAEHERGNAILVRDRIHKFHRLVSTLRPPESRVFSLQQPPPGEGTWEPEHTGDFHMEEALDWPGVYLLPGQVSGVALDPKNNLVIFHRGDHVWDGNSFDSKFVYQQIGLGPIEEDTILVIDPNNAAVLQSSGKNLFYLPHGLSIDKDGNYWVTDVALHQVFKLDPNNKEGPVLILGRSMQPGSDQNHFCQPTDVAVDPGTGAIYVSDGYCNSRIVQFSPSGKFITQWGEESSGSSPLPGQFTVPHSLALVPLLGQLCVADRENGRIQCFKTDTKEFVREIKHSSFGRNVFAISYIPGLLFAVNGKPHFGDQEPVQGFVMNFSNGEIIDIFKPVRKHFDMPHDIVASEDGTVYIGDAHTNTVWKFTLTEKLEHRSVKKAGIEVQEIKEAEAVVGSHHHHHH
In the case of B1, the bio-ADM synthesis rate [3] is reported as “by an averaged factor of 1.8 at each time-point”.
